Patent US10406246B2, “Double-labeled probe for molecular imaging and use thereof” (DEUTSCHES KREBSFORSCHUNGSZENTRUM, priority 2013, dated 2019)

Legend:
LNCaP tumor [1] = test: comparative PET imaging of 68Ga-labeled PSMA-HBED-CC conjugates; type: in vivo; settings: 1 hour post injection, LNCaP tumor-bearing nude mice
Experimental: The ^68Ga-labeled compounds PSMA-HBED-CC-FITC (the compound depicted above), PSMA-Ahx-HBED-CC-cyanine 5.5 (the compound depicted above, of which the mass was determined by mass spectrometry as being M(calculated)=1642.98; M(found)=1642.7) and PSMA-Ahx-HBED-CC (the corresponding compound without cyanine 5.5) and were injected into an LNCaP tumor-bearing nude mice. One hour post injection, […] was performed.

PSMA = molecular target: T1, PSMA (Homo sapiens, UniProt Q04609); test: in vitro competitive cell binding assay on LNCaP cells against 68Ga-labeled [Glu-urea-Lys(Ahx)]2-HBED-CC; settings: 12 concentrations of analyte 0-5000 nM, mean of three experiments
T1 construct: host or cells: LNCaP cells
T1 sequence (Q04609 whole entry): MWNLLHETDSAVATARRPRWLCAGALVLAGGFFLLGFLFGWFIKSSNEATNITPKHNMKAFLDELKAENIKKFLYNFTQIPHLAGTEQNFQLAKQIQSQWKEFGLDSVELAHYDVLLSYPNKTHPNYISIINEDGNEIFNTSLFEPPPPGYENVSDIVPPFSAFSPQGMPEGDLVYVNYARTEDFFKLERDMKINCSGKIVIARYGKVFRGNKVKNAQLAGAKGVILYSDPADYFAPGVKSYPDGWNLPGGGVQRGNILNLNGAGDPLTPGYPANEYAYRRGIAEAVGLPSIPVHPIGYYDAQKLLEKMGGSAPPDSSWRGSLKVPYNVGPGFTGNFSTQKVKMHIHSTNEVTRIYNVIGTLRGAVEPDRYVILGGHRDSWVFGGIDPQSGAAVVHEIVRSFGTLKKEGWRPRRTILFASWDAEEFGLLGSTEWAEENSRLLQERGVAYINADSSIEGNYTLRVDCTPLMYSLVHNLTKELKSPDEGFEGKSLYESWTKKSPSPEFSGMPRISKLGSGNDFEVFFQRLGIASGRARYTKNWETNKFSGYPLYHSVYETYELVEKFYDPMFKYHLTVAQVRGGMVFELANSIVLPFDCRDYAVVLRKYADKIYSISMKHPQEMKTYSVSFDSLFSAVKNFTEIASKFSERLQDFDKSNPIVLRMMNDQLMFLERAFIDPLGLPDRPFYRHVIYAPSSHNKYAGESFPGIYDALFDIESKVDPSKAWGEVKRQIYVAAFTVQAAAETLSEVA
Experimental: (§1) The competitive cell binding assay and internalization experiments were performed as described previously (Eder et al. 2012). Briefly, the respective cells (10^5 per well) were incubated with the radiometal (^68Ga-labeled [Glu-urea-Lys(Ahx)]2-HBED-CC (Schafer et al. 2012)) in the presence of 12 different concentrations of analyte (0-5000 nM, 100 μL/well). After incubation, washing was carried out using a multiscreen vacuum manifold (Millipore, Billerica, Mass.). Cell-bound radioactivity was measured using a gamma counter (Packard Cobra II, GMI, Minnesota, USA). The 50% inhibitory concentration (IC50) was calculated by fitting the data using a nonlinear regression algorithm (GraphPad Software). Experiments were performed three times.
as §1, with “al.,” for “al.”, “radioligand” for “radiometal”, “(Schäfer” for “(Schafer”, “The 50% inhibitory concentration (IC50) was calculated by fitting the data using a nonlinear regression algorithm (GraphPad Software). Experiments were performed three times.” left out

[2] = system: PSMA positive LNCaP tumors; test: organ distribution in LNCaP tumor bearing xenografts; type: in vivo, BALB/c nu/nu mice; settings: 68Ga-labeled, 1 h post injection; for Organ distribution, Blood, Mean / Organ distribution, Brain, Mean / Organ distribution, Heart, Mean / Organ distribution, Intestine, Mean / Organ distribution, Kidney, Mean / Organ distribution, Liver, Mean / Organ distribution, Lung, Mean / Organ distribution, Muscle, Mean / Organ distribution, Spleen, Mean / Organ distribution, Tumor (tumor uptake), Mean: 0.06 nmol, tail vein, n=3; for distribution profile in healthy organs: both compounds compared with each other; for Organ distribution, Tumor (tumor uptake), Mean: PSMA positive LNCaP tumors
Experimental: 7- to 8-week-old male BALB/c nu/nu mice (Charles River Laboratories) were subcutaneously inoculated into the right trunk with 5×10^6 cells of LNCaP (in 50% Matrigel; Becton Dickinson, Heidelberg, Germany). The tumors were allowed to grow until approximately 1 cm^3 in size. The radiolabeled compounds were injected into the tail vein (approx. 1 MBq per mouse; 0.06 nmol). At 1 h after injection the animals were sacrificed. Organs of interest were dissected, blotted dry, and weighed. The radioactivity was measured using a gamma counter and calculated as % ID/g.

LNCaP cells = test: specific cell uptake, cell surface binding and internalization; type: cell-based, human; settings: 68Ga-labeled
Experimental: To determine the specific cell uptake and internalization, 10^5 cells were seeded in poly-L-lysine coated 24-well cell culture plates 24 h before incubation. After washing, the cells were incubated with 25 nM of the radiolabeled compounds for 45 min at 37° C. and at 4° C., respectively. Specific cellular uptake was determined by competitive blocking with 2-(phosphonomethyl)pentanedioic acid (500 μM final concentration, PMPA, Axxora, Loerrach, Germany). Cellular uptake was terminated by washing 4 times with 1 mL of ice-cold PBS. Cells were subsequently incubated twice with 0.5 mL glycine-HCl in PBS (50 mM, pH=2.8) for 5 min to remove the surface-bound fraction. The cells were washed with 1 mL of ice-cold PBS and lysed using 0.3 N NaOH (0.5 mL). The surface-bound and the internalized fractions were measured in a gamma counter. The cell uptake was calculated as percent of the initially added radioactivity bound to 10^6 cells [% ID/10^6 cells].

LNCaP tumor [3] = test: comparative organ distribution versus Banerjee reference compounds; type: in vivo; settings: 1 hour post injection, LNCaP tumor-bearing nude mice
Experimental: PSMA-Ahx-HBED-CC-FITC (as shown above) was compared with a reference compound published by Banerjee et al. (Banerjee et al., 2011, Angew Chem Int Ed Engl. 50(39):9167-9170, page 6, scheme 1, final product) and the corresponding compound without the fluorescent dye IRDye800CW bearing a free amino group of the lysyl moiety the dye IRDye800CW can be bound to. These compounds were injected into LNCaP tumor-bearing nude mice.

Organ distribution, Tumor (tumor uptake), Mean ([2]; listed as Glu-urea-Lys-HBED-CC-dye)	tumor uptake versus Banerjee reference compounds (LNCaP tumor [3])	SMILES	distribution of radioactivity and tumor uptake (PET imaging) (LNCaP tumor [1])	IC50 (PSMA)	Organ distribution, Blood, Mean [2]	Organ distribution, Brain, Mean [2]	Organ distribution, Heart, Mean [2]	Organ distribution, Intestine, Mean [2]	Organ distribution, Kidney, Mean [2]	Organ distribution, Liver, Mean [2]	Organ distribution, Lung, Mean [2]	Organ distribution, Muscle, Mean [2]	Organ distribution, Spleen, Mean [2]	distribution profile in healthy organs [2]	Organ distribution, Tumor (tumor uptake), Mean [2]	Organ distribution, Tumor (tumor uptake), Mean ([2]; listed as Glu-urea-Lys-HBED-CC)	internalization by LNCaP cells (LNCaP cells; 25 nM, 45 min, competitive blocking with 500 μM 2-PMPA (P<0.001))	cell uptake and internalization profile versus Glu-urea-Lys-HBED-CC (LNCaP cells; LNCaP cells)
–	–	O=C(O)CCc1ccc(O)c(CN(CCN(CC(=O)O)Cc2cc(CCC(=O)NCCCCCC(=O)NCCCC[C@H](NC(=O)N[C@@H](CCC(=O)O)C(=O)O)C(=O)O)ccc2O)CC(=O)O)c1 [Glu-urea-Lys(Ahx)-HBED-CC, reference compound]	comparable distribution of radioactivity and tumor uptake	9.82 ± 1.26 nM	0.53 % ID/g	0.40 % ID/g	0.83 % ID/g	1.14 % ID/g	139.44 % ID/g	1.43 % ID/g	2.36 % ID/g	1.00 % ID/g	17.88 % ID/g	comparable	4.89±1.34 % ID/g	4.89 % ID/g	–	–
10.86 % ID/g	–	O=C(O)CCC(NC(=O)NC(CCCCNC(=O)CCc1ccc(O)c(CN(CCN(CC(=O)O)Cc2cc(CCC(=O)NCCOCCOCCNC(=S)Nc3ccc4c(c3)C(=O)OC43c4ccc(O)cc4Oc4cc(O)ccc43)ccc2O)CC(=O)O)c1)C(=O)O)C(=O)O (centres unmarked) [Glu-urea-Lys-HBED-CC-Fluorescein]	comparable distribution of radioactivity and tumor uptake	11.1 ± 1.16 nM	1.34 % ID/g	0.31 % ID/g	2.22 % ID/g	0.81 % ID/g	138.18 % ID/g	1.71 % ID/g	3.09 % ID/g	1.84 % ID/g	45.24 % ID/g	comparable	10.86±0.94 % ID/g	–	specifically internalized	not considerably changed
–	significantly improved	O=C(O)CCC(NC(=O)NC(CCCCNC(=O)CCCCCNC(=O)CCc1ccc(O)c(CN(CCN(CC(=O)O)Cc2cc(CCC(=O)NCCOCCOCCNC(=S)Nc3ccc4c(c3)C(=O)OC43c4ccc(O)cc4OC4C=C(O)C=CC43)ccc2O)CC(=O)O)c1)C(=O)O)C(=O)O (centres unmarked) [PSMA-Ahx-HBED-CC-FITC]	–	–	–	–	–	–	–	–	–	–	–	–	–	–	–	–
–	–	CN1/C(=C/C=C/C=C/C2=[N+](CCCCCC(=O)NCCOCCOCCNC(=O)CCc3ccc(O)c(CN(CCN(CC(=O)O)Cc4cc(CCC(=O)NCCCCCC(=O)NCCCCC(NC(=O)NC(CCC(=O)O)C(=O)O)C(=O)O)ccc4O)CC(=O)O)c3)c3ccc4ccccc4c3C2(C)C)C(C)(C)c2c1ccc1ccccc21 (centres unmarked) [PSMA-Ahx-HBED-CC-cyanine 5.5]	comparable distribution of radioactivity and tumor uptake	–	–	–	–	–	–	–	–	–	–	–	–	–	–	–
